Patent US20240228555A9, “ANTIMICROBIAL PEPTIDOMIMETICS” (Basilea Pharmaceutica International AG, Allschwil, priority 2020, published 2024)
Where a SMILES comes first, the peptide text is derived from it.

Tests used:
[1] = test system: Escherichia coli ATCC 25922; conditions: ATCC 25922
Method: (§1) Lyophilized peptides were weighed on a Microbalance (Mettler MT5) and dissolved in sterile water to a final concentration of 1 mg/mL. Stock solutions were kept at +4° C., light protected.
(§2) Colonies of the microorganisms were diluted in saline (0.85%, NaCl) and adjusted using a McFarland reader (bioMérieux SA, Marcy-l'Etoile, France) to 0.5 McFarland standard. Subsequently, the bacterial suspension was diluted in Mueller-Hinton II (MHII, cation adjusted) broth to give approximately 5×10^5 colony forming units (CFU/mL).
(§3) 10^6 colony forming units (CFU)/mL. Aliquots (90 μl) of inoculate were added to 10 μl of water+P-80 (Polysorbate 80, 0.002% final concentration) containing the peptide in serial two-fold dilutions at 10 fold final concentration. The following microorganisms were used to determine antibiotic selectivity of the peptides: Escherichia coli ATCC 25922, Escherichia coli MCR-1 Af 45 and Klebsiella pneumoniae SSI3010.

[2] = test system: Klebsiella pneumoniae SSI3010; conditions: SSI3010
Method: as §1, §2, §3

[3] = test system: Escherichia coli MCR-1 Af 45; conditions: Mueller-Hinton broth II, no visible growth after 18-20 hours at 35° C.
Method: as §1, §2, §3

[4] = test system: human red blood cells (hRBC); format: cell-based; conditions: red cells of human, 1 h, 0.2 g/L
Method: as §1
The peptides were tested for their hemolytic activity against human red blood cells (hRBC). Fresh hRBC were washed three times with phosphate buffered saline (PBS) and centrifuged for 5 min at 3000×g. Compounds (200 μg/mL) were incubated with 20% hRBC (v/v) for 1 h at 37° C. and shaking at 300 rpm. A value of 0% and 100% cell lyses, respectively, was determined by incubation of hRBC in the presence of PBS and 2.5% Triton X-100 in H2O, respectively. The samples were centrifuged, the supernatants were 8-fold diluted in PBS buffer and the optical densities (OD) were measured at 540 nm. The 100% lyses value (OD540H2O) gave an OD540 of approximately 0.5-1.0.
Percent hemolysis was calculated as follows: (OD540peptide/OD540H2O)×100%.

SMILES | Escherichia coli ATCC 25922 MIC [1] | Klebsiella pneumoniae SSI3010 MIC [2] | Escherichia coli MCR-1 Af 45 MIC [3] | Hemolysis at 0.2 g/L [4]
CC[C@H](C)[C@H](NC(=O)[C@@H](NC(=O)[C@@H]1C[C@@H](O)CN1C(=O)[C@@H](N)C(C)C)[C@@H](C)CC)C(=O)N[C@@H](Cc1ccc(O)cc1)C(=O)N[C@@H]1C(=O)N[C@@H](CC(N)=O)C(=O)N[C@@H](CCCNC(=N)N)C(=O)N[C@@H](CCN)C(=O)N[C@@H](CO)C(=O)N[C@H](CCN)C(=O)N[C@@H](CCCCN)C(=O)N[C@H](C(=O)N[C@@H](CCN)C(=O)N[C@@H](CCN)C(=O)N[C@@H](Cc2ccc(O)cc2)C(=O)O)CSSC1(C)C [Example 76, Val-Hyp-Ile-Ile-Tyr-Pen-Asn-Arg-Dab-Ser-^DDab-Lys-Cys-Dab-Dab-Tyr] (HELM PEPTIDE1{V.[Hyp].I.I.Y.[Pen].N.R.[Dab].S.[NCC[C@@H](N[*:1])C(=O)[*:2]].K.C.[Dab].[Dab].Y}$PEPTIDE1,PEPTIDE1,6:R3-13:R3$$$V2.0) | 0.0625 µg/mL | 0.25 µg/mL | 0.0625 µg/mL | <1%
CC[C@H](C)[C@H](NC(=O)[C@@H]1C[C@@H](O)CN1C(=O)[C@@H](N)C(C)C)C(=O)N[C@H](C(=O)N[C@@H](Cc1ccc(O)cc1)C(=O)N[C@@H]1C(=O)N[C@@H](CC(N)=O)C(=O)N[C@@H](CCCNC(=N)N)C(=O)N[C@@H](CCN)C(=O)N[C@@H](CO)C(=O)N[C@H](CCN)C(=O)N[C@@H](CCCCN)C(=O)N[C@H](C(=O)N[C@@H](CCN)C(=O)N[C@@H](CCN)C(=O)N[C@@H](Cc2ccc(O)cc2)C(=O)O)CSSC1(C)C)[C@@H](C)O [Example 77, Val-Hyp-Ile-Thr-Tyr-Pen-Asn-Arg-Dab-Ser-^DDab-Lys-Cys-Dab-Dab-Tyr] (HELM PEPTIDE1{V.[Hyp].I.T.Y.[Pen].N.R.[Dab].S.[NCC[C@@H](N[*:1])C(=O)[*:2]].K.C.[Dab].[Dab].Y}$PEPTIDE1,PEPTIDE1,6:R3-13:R3$$$V2.0) | 0.0625 µg/mL | 0.125 µg/mL | 0.0625 µg/mL | <1%
CC[C@H](C)[C@H](NC(=O)[C@@H](NC(=O)[C@@H]1C[C@@H](O)CN1C(=O)[C@@H](N)C(C)C)[C@@H](C)CC)C(=O)N[C@@H](Cc1ccc(O)cc1)C(=O)N[C@@H]1C(=O)N[C@@H](CC(N)=O)C(=O)N[C@@H](CCCNC(=N)N)C(=O)N[C@@H](CCN)C(=O)N[C@@H]([C@@H](C)O)C(=O)N[C@H](CCN)C(=O)N[C@@H](CCCN)C(=O)N[C@H](C(=O)N[C@@H](CCN)C(=O)N[C@@H](CCCNC(=N)N)C(=O)N[C@@H](Cc2ccc(O)cc2)C(=O)O)CSSC1(C)C [Example 78, Val-Hyp-Ile-Ile-Tyr-Pen-Asn-Arg-Dab-Thr-^DDab-Orn-Cys-Dab-Arg-Tyr] (HELM PEPTIDE1{V.[Hyp].I.I.Y.[Pen].N.R.[Dab].T.[NCC[C@@H](N[*:1])C(=O)[*:2]].[Orn].C.[Dab].R.Y}$PEPTIDE1,PEPTIDE1,6:R3-13:R3$$$V2.0) | 0.0625 µg/mL | 0.125 µg/mL | 0.0625 µg/mL | <1%
CC[C@H](N)C(=O)N1C[C@H](O)C[C@H]1C(=O)N[C@H](C(=O)N[C@H](C(=O)N[C@@H](Cc1ccc(O)cc1)C(=O)N[C@@H]1C(=O)N[C@@H](CC(N)=O)C(=O)N[C@@H](CCCNC(=N)N)C(=O)N[C@@H](CCN)C(=O)N[C@@H]([C@@H](C)O)C(=O)N[C@H](CCN)C(=O)N[C@@H](CCCCN)C(=O)N[C@H](C(=O)N[C@@H](CCN)C(=O)N[C@@H](CCCNC(=N)N)C(=O)N[C@@H](Cc2ccc(O)cc2)C(=O)O)CSSC1(C)C)[C@@H](C)CC)[C@@H](C)CC [Example 79, Abu-Hyp-Ile-Ile-Tyr-Pen-Asn-Arg-Dab-Thr-^DDab-Lys-Cys-Dab-Arg-Tyr] (HELM PEPTIDE1{[Abu].[Hyp].I.I.Y.[Pen].N.R.[Dab].T.[NCC[C@@H](N[*:1])C(=O)[*:2]].K.C.[Dab].R.Y}$PEPTIDE1,PEPTIDE1,6:R3-13:R3$$$V2.0) | 0.125 µg/mL | 0.5 µg/mL | 0.125 µg/mL | <1%
CC[C@H](C)[C@H](NC(=O)[C@@H]1CCCN1C(=O)[C@@H](N)C(C)C)C(=O)N[C@H](C(=O)N[C@@H](Cc1ccc(O)cc1)C(=O)N[C@@H]1C(=O)N[C@@H](CC(N)=O)C(=O)N[C@@H](CCCNC(=N)N)C(=O)N[C@@H](CCN)C(=O)N[C@@H]([C@@H](C)O)C(=O)N[C@H](CCN)C(=O)N[C@@H](CCCCN)C(=O)N[C@H](C(=O)N[C@@H](CCN)C(=O)N[C@@H](CCCNC(=N)N)C(=O)N[C@@H](Cc2ccc(O)cc2)C(=O)O)CSSC1(C)C)[C@@H](C)O [Example 80, Val-Pro-Ile-Thr-Tyr-Pen-Asn-Arg-Dab-Thr-^DDab-Lys-Cys-Dab-Arg-Tyr] (HELM PEPTIDE1{V.P.I.T.Y.[Pen].N.R.[Dab].T.[NCC[C@@H](N[*:1])C(=O)[*:2]].K.C.[Dab].R.Y}$PEPTIDE1,PEPTIDE1,6:R3-13:R3$$$V2.0) | 0.125 µg/mL | 0.25 µg/mL | 0.0625 µg/mL | <1%
CC[C@H](C)[C@H](NC(=O)[C@@H]1C[C@@H](O)CN1C(=O)[C@@H](N)C(C)C)C(=O)N[C@@H](CCN)C(=O)N[C@@H](Cc1ccc(O)cc1)C(=O)N[C@@H]1C(=O)N[C@@H](CC(N)=O)C(=O)N[C@@H](CCCNC(=N)N)C(=O)N[C@@H](CCN)C(=O)N[C@@H](CO)C(=O)N[C@H](CCN)C(=O)N[C@@H](CCCCN)C(=O)N[C@H](C(=O)N[C@@H](CCN)C(=O)N[C@@H](CCN)C(=O)N[C@@H](Cc2ccc(O)cc2)C(=O)O)CSSC1(C)C [Example 81, Val-Hyp-Ile-Dab-Tyr-Pen-Asn-Arg-Dab-Ser-^DDab-Lys-Cys-Dab-Dab-Tyr] (HELM PEPTIDE1{V.[Hyp].I.[Dab].Y.[Pen].N.R.[Dab].S.[NCC[C@@H](N[*:1])C(=O)[*:2]].K.C.[Dab].[Dab].Y}$PEPTIDE1,PEPTIDE1,6:R3-13:R3$$$V2.0) | 0.125 µg/mL | 0.5 µg/mL | 0.0625 µg/mL | <1%
CC[C@H](C)[C@H](NC(=O)[C@@H](NC(=O)[C@@H]1C[C@@H](O)CN1C(=O)[C@@H](N)C(C)C)[C@@H](C)CC)C(=O)N[C@@H](Cc1ccc(O)cc1)C(=O)N[C@@H]1C(=O)N[C@@H](CC(N)=O)C(=O)N[C@@H](CCCNC(=N)N)C(=O)N[C@@H](CCCCN)C(=O)N[C@@H]([C@@H](C)O)C(=O)N[C@H](CCN)C(=O)N[C@@H](CCCCN)C(=O)N[C@H](C(=O)N[C@@H](CCCCN)C(=O)N[C@@H](CCCNC(=N)N)C(=O)N[C@@H](Cc2ccc(O)cc2)C(=O)O)CSSC1(C)C [Example 82, Val-Hyp-Ile-Ile-Tyr-Pen-Asn-Arg-Lys-Thr-^DDab-Lys-Cys-Lys-Arg-Tyr] (HELM PEPTIDE1{V.[Hyp].I.I.Y.[Pen].N.R.K.T.[NCC[C@@H](N[*:1])C(=O)[*:2]].K.C.K.R.Y}$PEPTIDE1,PEPTIDE1,6:R3-13:R3$$$V2.0) | 0.125 µg/mL | 0.25 µg/mL | 0.125 µg/mL | <1%
CC[C@H](C)[C@H](NC(=O)[C@@H](NC(=O)[C@@H]1C[C@@H](O)CN1C(=O)[C@@H](N)C(C)C)[C@@H](C)CC)C(=O)N[C@@H](Cc1ccc(O)cc1)C(=O)N[C@@H]1C(=O)N[C@@H](CC(N)=O)C(=O)N[C@@H](CCCNC(=N)N)C(=O)N[C@@H](CCN)C(=O)N[C@@H]([C@@H](C)O)C(=O)N[C@H](CCN)C(=O)N[C@@H]([C@@H](C)CC)C(=O)N[C@H](C(=O)N[C@@H](CCN)C(=O)N[C@@H](CCN)C(=O)N[C@@H](Cc2ccc(O)cc2)C(=O)O)CSSC1(C)C [Example 83, Val-Hyp-Ile-Ile-Tyr-Pen-Asn-Arg-Dab-Thr-^DDab-Ile-Cys-Dab-Dab-Tyr] (HELM PEPTIDE1{V.[Hyp].I.I.Y.[Pen].N.R.[Dab].T.[NCC[C@@H](N[*:1])C(=O)[*:2]].I.C.[Dab].[Dab].Y}$PEPTIDE1,PEPTIDE1,6:R3-13:R3$$$V2.0) | 0.25 µg/mL | 0.5 µg/mL | 0.25 µg/mL | <1%
